These results are taken from patent publication US11578110B2, “Compounds for inducing tissue formation and uses thereof” (HISTIDE AG, priority 2015, dated 2023).

No end group written: not given here.

The subject of the first experiment is hMSCs. The experiment in a line: STRO-1 stemness marker expression in hMSCs (immunostaining, ImageJ quantification). In kind it is cell-based, Human. To be noted: SEQ ID NO: 1 to 49 tested in combination with a bioactive carrier (titanium, ceramics, PEEK, hydrogel, etc.). On the procedure:
The cells were first fixed for 20 min with 4% paraformaldehyde/PBS at 4° C. After fixation, the cells were permeabilized in PBS containing 1% Triton X-100 for 15 min. Runx2, Osterix, Stro-1, Vinculin, Phalloidin, Osteopontin, Sox2, Sox9 antibodies were visualized by treating the cells with 1% (v/v) specific monoclonal antibodies for 1 hour at 37° C. Then the samples were incubated with Alexa fluor® 568 or 647 (F(ab′)2 fragment of IgG(H+L)) during 30 min at room temperature. The cell nuclei were counterstained in 20 ng/mL DAPI for 10 min at room temperature.
For this type of quantification the freeware image analysis ImageJ® software was used. The raw image was first converted to an 8-bit file, and then the unsharp mask feature was used (settings 1:0.2) to remove the image background (rolling ball radius 10). After smoothing, the resulting image, which appears similar to the original photomicrograph but with minimal background, was then converted to a binary image by setting a threshold. Threshold values were determined empirically by selecting a setting, which gave the most accurate binary image for a subset of randomly selected photomicrographs. The cell area was determined by manual delineation on raw fluorescent images. Total contact area and mean contact area per cell were calculated by “analyse particles” in ImageJ®. A minimum of 30 cells per condition were analyzed. Stro-1, CD-34+, and CD-105 expressions were determined using this procedure.
hMSCs were cultured on conventional cell culture plastic plates with or without the presence in the cell culture media of different GFR-binding compounds as defined hereins (SEQ ID NO: 50 to 104) in solution. […] This was probed by Stro-1 immunostaining after cell fixation as described in the Methods section. The quantification of Stro-1 positive contact numbers and areas was performed as described in the Methods section. A minimum of 30 cells per condition were analyzed.
RMSD values are always calculated for a GFR-binding peptide sequence exempt from any bioactive-carrier-affinity-containing group as defined herein (e.g. cysteine, WWFWG, GTPGP, etc. . . . ). When needed i.e. when attachment to a bioactive carrier is contemplated, the bioactive-carrier-affinity-containing group is then present in the GFR-binding compound when it is biologically tested. Using the method detailed in the description, the RMSD of 57 previously reported peptide sequences have been determined (Table 6) and correlated with the expression of STRO-1 after grafted on a PET surface via a procedure as already described above. […] One should note that it is commonly admitted that the expression of STRO-1 in a cell is indicative of a cell that is in a substantially non-differentiated state and the decrease of its expression of at least about 20% is indicative of a cell that has started a processes of differentiation but which may not result in the differentiation of the cell. A decrease of more than 50% would be indicative of the presence of a significant shift towards a differentiated state. A decrease of more than 70% would be indicative of the presence of a very important shift towards a differentiated state. A sustained decrease (e.g. for at least 96 h) of more than 50% or 70% would be indicative of the presence of an even more important shift towards a differentiated state.
Likewise, using the method detailed in the description, the RMSD of 87 GFR-binding peptide sequence representatives of the invention have been determined (Table 7) and correlated with the expression of STRO-1 after grafted on a PET surface via a procedure as already described above. SEQ ID NO: 1 to 49 were tested in combination with a bioactive carrier as defined above in the Examples Section (i.e. titanium, ceramics, PEEK, hydrogel, etc. . . . ), whereas SEQ ID NO: 1143 to 1180 were tested in solution.
Consider KIPKASSVPTELSATSVLYY [SEQ ID NO: 6], for which the STRO-1 expression worked out at 25%.
For KVGKASSVPTKLEPLTILYY [SEQ ID NO: 13], the STRO-1 expression was 26%.
As for KVGKASSVPTKLSAISMLYL [SEQ ID NO: 20], the STRO-1 expression is recorded as 19%.
For KVGKASSVSQKLEPLTILYY [SEQ ID NO: 10], the STRO-1 expression is 32%.
The same measure, in the same setting: as for NDEGLESAPTEENAISVLYF [SEQ ID NO: 4], the figure is 22%; as for NDEGLESAPTGQNAISVLYF [SEQ ID NO: 5], 27%; as for NDEGLESVPTGQNAISVLYF [SEQ ID NO: 17], 31%.
Same read-out and setting: the result for RNVQSRPTQVQLNAISVLYF [SEQ ID NO: 11] reads 24%.
Consider RNVQSRPTQVQLSAISMLYL [SEQ ID NO: 14], for which the STRO-1 expression stood at 16%.
On the same count and under the same terms, the result for RVPSTSSVPAKTSPISILYI [SEQ ID NO: 43] reads 15%.

Still in this experiment, the particulars now being: SEQ ID NO: 1 to 49 tested in combination with a bioactive carrier (titanium, ceramics, PEEK, hydrogel, etc.), listed as 45.
On to NDEGLESVPAEESPISILYI [SEQ ID NO: 45], for which the STRO-1 expression was 16%.

Still in this experiment, the particulars now being: SEQ ID NO: 1 to 49 tested in combination with a bioactive carrier (titanium, ceramics, PEEK, hydrogel, etc.), listed as 47.
As for NDEGLESVPAEESPISILYI [SEQ ID NO: 47], the STRO-1 expression is listed as 18%.

The same experiment, now with this note: SEQ ID NO: 1143 to 1180 tested in solution.
In the case of “KIPKASSSRVRLSSLSTLFF (GFR-binding peptide) [SEQ ID NO: 1157]”, the STRO-1 expression is listed as 20%.
On to “KIPKASSTPTRLSPISMLFI (GFR-binding peptide) [SEQ ID NO: 1163]”, for which the STRO-1 expression worked out at 28%.
“KIPKASSTQVGQSATSILYY (GFR-binding peptide) [SEQ ID NO: 1161]”: the STRO-1 expression is on record as 27%.
As to “KIPKASSTQVRLRPVQIRKI (GFR-binding peptide) [SEQ ID NO: 1153]”, the STRO-1 expression came out at 30%.
Regarding “KIPKASSTQVRLRSVKTAKV (GFR-binding peptide) [SEQ ID NO: 1178]”, the STRO-1 expression came out at 35%.
Same read-out and setting: the result for “KIPKASSVPAQLEPLPIVYY (GFR-binding peptide) [SEQ ID NO: 1171]” reads 28%; that for “KIPKASSVPTGGSNITVQIM (GFR-binding peptide) [SEQ ID NO: 1151]”, 32%; that for “KIPKASSVPTKMKPLSVLYV (GFR-binding peptide) [SEQ ID NO: 1168]”, 21%.
With “KIPKASSVSQKMEPLTMLYY (GFR-binding peptide) [SEQ ID NO: 1150]”, the STRO-1 expression came to 20%.
For the sequence “KIPKASSVSQQLEPISTLYL (GFR-binding peptide) [SEQ ID NO: 1165]”, the STRO-1 expression stood at 17%.
Still for that read-out and setting: as for “NDEGLESVPEDLSSLSVLFF (GFR-binding peptide) [SEQ ID NO: 1143]”, the figure is 23%; as for “RVPSTSSAPTKMKPLSMLYV (GFR-binding peptide) [SEQ ID NO: 1169]”, 22%.
Turning to “RVPSTSSAPTKMNAISMLYF (GFR-binding peptide) [SEQ ID NO: 1145]”, the STRO-1 expression was found to be 23%.
Take “RVPSTSSTQVDLNAISVLYF (GFR-binding peptide) [SEQ ID NO: 1159]”: the STRO-1 expression was determined as 23%.
Same read-out and setting: as for “RVPSTSSTQVKMSAISMLYL (GFR-binding peptide) [SEQ ID NO: 1155]”, the figure is 17%.
As to “RVPSTSSVPAEESNITVQIM (GFR-binding peptide) [SEQ ID NO: 1176]”, the STRO-1 expression is reported as 26%.

Still in this experiment, the particulars now being: grafted on a PET surface.
As for “KGSEYEKLVVSGITQVYQSSLSWHGCKSCCEVQVXNLXILIRLYDVHYYN (not fully specified; X: residue not identified in the source; ends and bridges not checked) [SEQ ID NO: 1122, reference compound]”, the STRO-1 expression is 88%.
“KIPKPSSAPTELSAISMC (Previously reported sequence) [SEQ ID NO: 1129, reference compound]”: the STRO-1 expression was 78%.
On to “KIPKPSSAPTELSAISMLC (Previously reported sequence) [SEQ ID NO: 1132, reference compound]”, for which the STRO-1 expression was 82%.
In the case of “KIPKPSSAPTELSAISMLYC (Previously reported sequence) [SEQ ID NO: 1133, reference compound]”, the STRO-1 expression stood at 80%.
Same read-out and setting: as for “KPCCAPTELSAISVLYFDDSSNVILKKYRNMVVRACGCR (Previously reported sequence) [SEQ ID NO: 1142, reference compound]”, the figure is 83%.
Regarding “KPCCAPTQLSAISVLYFDDSSNVILKKYRNMVVRACGCR (Previously reported sequence) [SEQ ID NO: 1141, reference compound]”, the STRO-1 expression amounted to 80%.
Take “LGIAAIIFLQQVPAAFSATSPPG (Previously reported sequence) [SEQ ID NO: 1113, reference compound]”: the STRO-1 expression was determined as 97%.
Regarding “LMDLARMPSCLRGERAVPQDTTGYFTWSSNITPLNFIF (Previously reported sequence) [SEQ ID NO: 1093, reference compound]”, the STRO-1 expression was determined as 92%.
For the sequence “LNEVLRFCGIQVPEGDEPLTY (Previously reported sequence) [SEQ ID NO: 1095, reference compound]”, the STRO-1 expression is on record as 99%.
As to “LSLLAPPEPVWNHETSYGSDCHVPTNVNAISKMIDKSNHQTG (Previously reported sequence) [SEQ ID NO: 1125, reference compound]”, the STRO-1 expression worked out at 93%.
For “MAAQDEWRDAITLTMGRDLKKVPQHLNAISVIDPVT (Previously reported sequence) [SEQ ID NO: 1124, reference compound]”, the STRO-1 expression was 83%.
On to “MALPQPRGSSLSKAPVVVAPCMALKRVNIRSIVFEVLKTMNQNCIHETPN (Previously reported sequence) [SEQ ID NO: 1123, reference compound]”, for which the STRO-1 expression came out at 82%.
“MQCRELVTQVTEEPISQTEDGEEQESTTTPRLKGQKKE (Previously reported sequence) [SEQ ID NO: 1104, reference compound]”: the STRO-1 expression stood at 85%.
On to “MRTESTPTTASAISYECLWSPPSNEAAKLHFDS (Previously reported sequence) [SEQ ID NO: 1137, reference compound]”, for which the STRO-1 expression amounted to 94%.
Consider “MSRVLFEPLTFLQTGSGLPDEKTLG (Previously reported sequence) [SEQ ID NO: 1096, reference compound]”, for which the STRO-1 expression came out at 94%.
In the case of “NEVLRFCGIQVPEGDEPLT (Previously reported sequence) [SEQ ID NO: 1094, reference compound]”, the STRO-1 expression was 98%.
In the case of “NPGASASPCCVSQDLEPLPIL (Previously reported sequence) [SEQ ID NO: 1098, reference compound]”, the STRO-1 expression is 86%.
The same measure, in the same setting: the result for “PIIYYVGRNVRVEQLSNMVVRA (Previously reported sequence) [SEQ ID NO: 1087, reference compound]” reads 92%; that for “PIIYYVGRNVRVEQLSNMVVRRA (Previously reported sequence) [SEQ ID NO: 1088, reference compound]”, 98%; that for “PNYSVPAGNKPLSERE (Previously reported sequence) [SEQ ID NO: 1100, reference compound]”, 95%.
